Data on 29 compounds can be found in ChEMBL document CHEMBL3407392, “Design, syntheses, structure-activity relationships and docking studies of coumarin derivatives as novel selective ligands for the CB2 receptor” (Eur J Med Chem, 2015).

The target in the first test is Cannabinoid receptor 1 (Homo sapiens, UniProt P21554). The format is functional, cell-based, CHO.
Chain of Cannabinoid receptor 1 (P21554 whole entry): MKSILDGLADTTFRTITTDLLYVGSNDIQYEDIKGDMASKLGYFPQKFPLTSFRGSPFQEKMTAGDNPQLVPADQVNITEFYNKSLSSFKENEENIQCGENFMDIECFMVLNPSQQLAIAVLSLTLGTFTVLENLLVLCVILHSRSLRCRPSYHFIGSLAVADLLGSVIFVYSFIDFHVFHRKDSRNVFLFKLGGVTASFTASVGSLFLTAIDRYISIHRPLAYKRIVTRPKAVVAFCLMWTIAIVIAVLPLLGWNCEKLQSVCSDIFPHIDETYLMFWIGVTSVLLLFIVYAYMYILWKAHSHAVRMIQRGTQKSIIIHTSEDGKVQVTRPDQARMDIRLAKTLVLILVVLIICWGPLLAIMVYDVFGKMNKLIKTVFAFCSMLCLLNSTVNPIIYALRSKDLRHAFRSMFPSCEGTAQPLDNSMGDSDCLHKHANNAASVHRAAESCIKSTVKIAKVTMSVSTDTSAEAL
In turn, `CCCCCCOc1cc(Br)cc2cc(C(=O)NC3CCCCC3)c(=O)oc12` displayed an IC50 of more than 10000 nM.

On to `CCCCCOc1cc(Br)cc2cc(C(=O)NC3CCCCC3)c(=O)oc12`, for which the IC50 was more than 10000 nM.

`CCCCOc1c(OC)ccc2cc(C(=O)NC(CC)CC)c(=O)oc12` registered a half-maximal inhibitory concentration (IC50) of more than 10000 nM.

For `CCCOc1c(OC)ccc2cc(C(=O)NC3CCCCC3)c(=O)oc12`, the IC50 is more than 10000 nM.

Regarding `CCCCCOc1c(OC)ccc2cc(C(=O)NCc3ccc4c(c3)OCO4)c(=O)oc12`, the IC50 is more than 10000 nM.

In turn, `CCCCOc1cc(Br)cc2cc(C(=O)NN3CCOCC3)c(=O)oc12` came in with an IC50 of more than 10000 nM.

In turn, `O=C(NC1CCCCC1)c1cc2cc(Br)cc(OCC3CC3)c2oc1=O` had an IC50 of more than 10000 nM.

For the compound `CCCCOc1c(OC)ccc2cc(C(=O)NC(C)CCC)c(=O)oc12` (stereo not drawn), the 50% inhibitory concentration (IC50) is more than 10000 nM.

The compound `CCCCOc1c(OC)ccc2cc(C(=O)NC3CCCCC3)c(=O)oc12` returned a half-maximal inhibitory concentration (IC50) of more than 10000 nM.

For the compound `CCCCOc1c(OC)ccc2cc(C(=O)NCC3CC3)c(=O)oc12`, the half-inhibitory concentration (IC50) was more than 10000 nM.

The next test deals with T1, Cannabinoid receptor 2 (Homo sapiens, UniProt P34972). Put plainly: Binding affinity to CB2 receptor (unknown origin).
T1 sequence (P34972 whole entry): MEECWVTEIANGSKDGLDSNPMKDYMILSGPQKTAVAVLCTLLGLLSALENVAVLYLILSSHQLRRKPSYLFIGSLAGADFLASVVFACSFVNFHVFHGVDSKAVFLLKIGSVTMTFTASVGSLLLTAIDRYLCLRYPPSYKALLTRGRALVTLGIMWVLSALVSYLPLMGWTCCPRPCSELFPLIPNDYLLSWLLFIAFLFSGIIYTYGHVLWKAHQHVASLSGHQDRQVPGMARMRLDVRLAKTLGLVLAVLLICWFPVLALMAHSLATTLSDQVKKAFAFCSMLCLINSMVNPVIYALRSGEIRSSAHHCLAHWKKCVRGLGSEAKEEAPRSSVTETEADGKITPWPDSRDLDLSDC
Regarding `CCCCCOc1ccc2c(c1OCCCCC)CN(CCc1ccc(N)cc1)C2=O`, the affinity corresponds to a Ki of 0.11 nM.

For the compound `CCCCCOc1c(OC)ccc2cc(C(=O)N3CCCc4ccccc4C3)c(=O)[nH]c12`, affinity was put at a Ki of 118 nM.

For `CCCCCNc1c(OC)ccc2c1CN(CCc1ccc(O)cc1)C2=O`, affinity was put at a Ki of 0.088 nM.

In turn, `CCCCCOc1cc(/C=C/C(=O)NCCc2ccc(O)cc2)ccc1OC` had an inhibition constant (Ki) of 4.8 nM. Compared with the last compound, the Ki is about 55-fold higher.

As to `CCCCCOc1c(OC)ccc2c1C(=O)N(CCc1ccc(O)cc1)C2=O`, the inhibitory constant (Ki) stood at 7.3 nM.

Consider `CCCCCOc1cc(C(=O)NC2CCc3cc(O)c(O)cc3C2)ccc1OC` (stereo not drawn), for which the Ki worked out at 18 nM.

The compound `CCCCOc1c(OC)ccc2cc(C(=O)NCCc3ccccc3)c(=O)[nH]c12` yielded a Ki of 0.33 nM.

In turn, `CCCCCOc1c(OC)ccc2c1CN(CCc1ccc(N)cc1)C2=O` returned a Ki of 14 nM.

In turn, `CCCCCOc1cc(C(=O)NCCc2ccc(O)cc2)ccc1OC` gave a Ki of 2.5 nM.

Regarding `CCCCCSc1cc(/C=C/C(=O)NCCc2ccc(O)cc2)ccc1OC`, the Ki came out at 1.1 nM.

As to `CCCCCOc1cc(C(=O)NCCc2ccncc2)ccc1OC`, the Ki was found to be 73 nM.

`CCCCCOc1c(OC)ccc2cc(C(=O)NCc3ccc4c(c3)OCO4)c(=O)oc12` yielded a Ki of 0.087 nM.

On to `CCCCCOc1c(OC)ccc2c1CN(CCc1ccc(O)cc1)C2=O`, for which affinity was put at a Ki of 11 nM.

Regarding `CCCCCOc1c(OC)ccc2c(=O)n(CCc3ccncc3)ccc12`, the Ki turned out to be 8.4 nM. The Ki values of the last two compounds are within 1.5-fold of each other.

As to `CCCCCOc1ccc(C(=O)NCCc2ccc(N)cc2)cc1SCCCCC`, the Ki stood at 1.9 nM.

The compound `CCCCCOc1c(OC)ccc2cc(C(=O)N3CCCC(C(=O)OCC)C3)c(=O)[nH]c12` (stereo not drawn) displayed a Ki of 100 nM.

Take `CCCCCOc1cc(/C=C/C(=O)NCCc2ccncc2)ccc1OC`: the Ki stood at 44 nM.

In the case of `CCCCCOc1c(OC)ccc2c1CCN(CCc1ccc(O)cc1)C2=O`, the inhibitory constant (Ki) stood at 1.8 nM.

For `CCCCCOc1c(OC)ccc2c(=O)n(CCc3ccc(O)cc3)ccc12`, the Ki came out at 3.7 nM.

`CCCCCOc1ccc(C(=O)NCCc2ccc(O)cc2)cc1OCCCCC` registered a Ki of 0.44 nM.

In another test the target is T1, Cannabinoid receptor 2. Put plainly: Antagonist activity at CB2 receptor (unknown origin) expressed in CHO cells up to 10 uM incubated for 10 mins prior to CP55940 addition by calcium mobilization assay. The format is functional, cell-based.
Consider `CCCCCCOc1cc(Br)cc2cc(C(=O)NC3CCCCC3)c(=O)oc12`, for which the IC50 was more than 10000 nM.

Take `CCCCCOc1cc(Br)cc2cc(C(=O)NC3CCCCC3)c(=O)oc12`: the IC50 came out at 2190 nM.

With `CCCCOc1c(OC)ccc2cc(C(=O)NC(CC)CC)c(=O)oc12`, the IC50 is 20 nM.

`CCCOc1c(OC)ccc2cc(C(=O)NC3CCCCC3)c(=O)oc12`: the IC50 worked out at 807 nM.

As for `CCCCCOc1c(OC)ccc2cc(C(=O)NCc3ccc4c(c3)OCO4)c(=O)oc12`, the half-inhibitory concentration (IC50) was determined as 644 nM.

Take `CCCCOc1cc(Br)cc2cc(C(=O)NN3CCOCC3)c(=O)oc12`: the IC50 was more than 10000 nM.

In the case of `O=C(NC1CCCCC1)c1cc2cc(Br)cc(OCC3CC3)c2oc1=O`, the concentration for half-maximal inhibition (IC50) amounted to 746 nM.

For `CCCCOc1c(OC)ccc2cc(C(=O)NC(C)CCC)c(=O)oc12` (stereo not drawn), the 50% inhibitory concentration (IC50) was found to be 19 nM.

Turning to `CCCCOc1c(OC)ccc2cc(C(=O)NC3CCCCC3)c(=O)oc12`, the half-maximal inhibitory concentration (IC50) was 22 nM.

In the case of `CCCCOc1c(OC)ccc2cc(C(=O)NCC3CC3)c(=O)oc12`, the concentration for half-maximal inhibition (IC50) amounted to 1180 nM.

Another test is filed under the species Homo sapiens. Put plainly: Selectivity index, ratio of IC50 for CB1 receptor (unknown origin) to IC50 for CB2 receptor (unknown origin).
For `CCCCCOc1cc(Br)cc2cc(C(=O)NC3CCCCC3)c(=O)oc12`, the Ratio IC50 amounted to 4.6.

With `CCCCOc1c(OC)ccc2cc(C(=O)NC(CC)CC)c(=O)oc12`, the Ratio IC50 is more than 500.

`CCCOc1c(OC)ccc2cc(C(=O)NC3CCCCC3)c(=O)oc12`: the Ratio IC50 was more than 12.4.

As for `CCCCCOc1c(OC)ccc2cc(C(=O)NCc3ccc4c(c3)OCO4)c(=O)oc12`, the Ratio IC50 is more than 15.5.

Consider `O=C(NC1CCCCC1)c1cc2cc(Br)cc(OCC3CC3)c2oc1=O`, for which the Ratio IC50 is more than 13.4.

Take `CCCCOc1c(OC)ccc2cc(C(=O)NC(C)CCC)c(=O)oc12` (stereo not drawn): the Ratio IC50 is more than 526.

Take `CCCCOc1c(OC)ccc2cc(C(=O)NC3CCCCC3)c(=O)oc12`: the Ratio IC50 was more than 454.

On to `CCCCOc1c(OC)ccc2cc(C(=O)NCC3CC3)c(=O)oc12`, for which the Ratio IC50 is more than 8.5.
